Reference: patent US8765060B2, “Chemical sensor” (Regents of the University of Minnesota, priority 2005, dated 2014)
Read-outs that look alike come from different tables or passages of the source. Values belong to the compound of their own block, whether it stands above or below them.

Assays:
[1] = Solubility in perfluoro(tributylamine)
[2] = assuming 1:1 stoichiometry; cited from earlier work
[3] = assuming 1:1 stoichiometry; cited from earlier work; remark: listed apart in the source
[4] = Extraction of lipophilic acids into fluorous membranes, 1H NMR; assay type: physicochemical; settings: aqueous buffered solutions of 10^−3.5 M acid; 1H NMR of membrane
[5] = cited from earlier work
[6] = cited from earlier work; remark: listed apart in the source
[7] = cited from earlier work; remark: listed apart in the source
[8] = PFPHP saturated with substance, salts judged by resistance of soaked porous PTFE membranes

solubility in PFPHP (physchem): poorly soluble
Compound: S=C(NCc1cccc(CNC(=S)Nc2ccccc2)c1)Nc1ccccc1

solubility in PFPHP (physchem): not soluble enough
Compound: FC(F)(F)c1cc([B-](c2cc(C(F)(F)F)cc(C(F)(F)F)c2)(c2cc(C(F)(F)F)cc(C(F)(F)F)c2)c2cc(C(F)(F)F)cc(C(F)(F)F)c2)cc(C(F)(F)F)c1.[Na+]

solubility in PFPHP (physchem): poorly soluble
Compound: CCCCCCCCC(CCCCCCCC)CN=c1cc2oc3cc(N(CC)CC)ccc3nc-2c2ccccc12 [Chromoionophroes III]

solubility in PFPHP (physchem): poorly soluble
Compound: CCCCC(CCCC)OC(=O)CCCCCCCCCCOC(=O)Cc1ccc(N=c2cc3oc4cc(N(C)C)ccc4nc-3c3ccccc23)cc1 [Chromoionophroes II]

solubility in PFPHP (physchem): poorly soluble
Compound: CCCCCCCCCCCCCCCCCC(=O)N=c1cc2oc3cc(N(CC)CC)ccc3nc-2c2ccccc12 [Chromoionophroes I]

solubility in PFPHP (physchem): poorly soluble
Compound: CCCCCCCCCCCCCCCCCCOC(=O)c1ccncc1 [Hydrogen Ionophre IV]

solubility in PFPHP (physchem): poorly soluble
Compound: c1ccc(CSCc2ccccc2)cc1 [dibenzyl sulfide]

extraction into fluorous membranes [4]: not extracted to any significant amount
Compound: CCCCCCCC(=O)O [octanoic acid]

solubility in PFPHP (physchem): poorly soluble
Compound: CCCCCCCCCCCCN(CCCCCCCCCCCC)CCCCCCCCCCCC [tridodecylamine]

solubility in PFPHP (physchem): not soluble enough
Compound: CCCCCCCCCCCC[N+](C)(CCCCCCCCCCCC)CCCCCCCCCCCC.[Cl-] [tridodecylmethylammonium chloride]

Continued, compound first:

Compound: OC(c1cccc(C(O)(C(F)(F)F)C(F)(F)F)c1)(C(F)(F)F)C(F)(F)F
solubility in PFPHP (physchem; [8]): poorly soluble
solubility in perfluoro(tributylamine) [1]: poorly soluble

Compound: FC(OC(F)(F)C(F)(OC(F)(F)C(F)(OC(F)(F)C(F)(OC(F)(F)C(F)(F)C(F)(F)F)C(F)(F)F)C(F)(F)F)C(F)(F)F)C(F)(F)F (centres unmarked) [2H-perfluoro-5,8,11-trimethyl-3,6,9,12-tetraoxapentadecane]
formal association constant with Li^+ [2]: 1.5 M⁻¹
formal association constant with Na^+ [3]: 2.3 M⁻¹

Compound: CCCCCCCCCCCC[N+](CCCCCCCCCCCC)(CCCCCCCCCCCC)CCCCCCCCCCCC.Clc1ccc([B-](c2ccc(Cl)cc2)(c2ccc(Cl)cc2)c2ccc(Cl)cc2)cc1 [ETH 500, tetradecylammonim tetrakis[p-chlorophenyl]borate]
solubility in PFPHP (physchem; [8]): not sufficiently soluble

Compound: C[C@H](CCC(=O)O)[C@H]1CC[C@H]2[C@@H]3[C@H](O)C[C@@H]4C[C@H](O)CC[C@]4(C)[C@H]3C[C@H](O)[C@]12C [cholic acid]
extraction into fluorous membranes [4]: not extracted to any significant amount

Compound: FC(F)(F)C(F)(F)C(F)(F)C(F)(F)C(F)(F)C(F)(F)c1cc([B-](c2cc(C(F)(F)C(F)(F)C(F)(F)C(F)(F)C(F)(F)C(F)(F)F)cc(C(F)(F)C(F)(F)C(F)(F)C(F)(F)C(F)(F)C(F)(F)F)c2)(c2cc(C(F)(F)C(F)(F)C(F)(F)C(F)(F)C(F)(F)C(F)(F)F)cc(C(F)(F)C(F)(F)C(F)(F)C(F)(F)C(F)(F)C(F)(F)F)c2)c2cc(C(F)(F)C(F)(F)C(F)(F)C(F)(F)C(F)(F)C(F)(F)F)cc(C(F)(F)C(F)(F)C(F)(F)C(F)(F)C(F)(F)C(F)(F)F)c2)cc(C(F)(F)C(F)(F)C(F)(F)C(F)(F)C(F)(F)C(F)(F)F)c1.[Na+] [compound 2]
solubility (physchem; organic solvent or mixture): 1400 µM

Compound: FC(F)(F)C(F)(F)C(F)(F)C(F)(F)C(F)(F)N(C(F)(F)C(F)(F)C(F)(F)C(F)(F)C(F)(F)F)C(F)(F)C(F)(F)C(F)(F)C(F)(F)C(F)(F)F [perfluorotripentylamine]
formal pKa [5]: smaller than −0.5
association with any ion tested ([5]; inorganic monocations): does not undergo measurable association

Compound: CCCC[N+](CCCC)(CCCC)CCCC.F[B-](F)(F)F [tetrabutyl-ammonium tetrafluoroborate]
log Kip ([6]; in α,α,α-trifluorotoluene): 5.4

Compound: CCCCCCCC[N+](CCCCCCCC)(CCCCCCCC)CCCCCCCC.[Cl-] [tetraoctylammonium chloride]
log Kip ([6]; in 98.2 toluene-nitrobenzene): 14.9

Compound: CC(C)[C@@H]1NC(=O)[C@H](C)OC(=O)[C@@H](C(C)C)NC(=O)[C@@H](C(C)C)OC(=O)[C@H](C(C)C)NC(=O)[C@H](C)OC(=O)[C@@H](C(C)C)NC(=O)[C@@H](C(C)C)OC(=O)[C@H](C(C)C)NC(=O)[C@H](C)OC(=O)[C@@H](C(C)C)NC(=O)[C@@H](C(C)C)OC1=O [valinomycin]
log K^potK,Na ([7]; after exposure to an extract of urine): −3.1
log K^potK,Na ([7]; before exposure to an extract of urine): −3.9
solubility in PFPHP (physchem; [8]): poorly soluble
solubility in perfluoro(tributylamine) [1]: poorly soluble

Compound: tetrakis-(decyl)ammonium tetraphenylborate
log Kip ([6]; in cyclohexane): 14.2
